Assay results from paper PMC8549791, “Discovery of SARS-CoV-2 M^pro peptide inhibitors from modelling substrate and ligand binding” (Chemical Science, 2021).
“Also recorded” adds a separate entry of the source. Read-outs that look alike come from different tables or passages of the source. Ends that are not written are not given here.

Columns and labels:
SARS-CoV-2 M^pro [1] = target: T1, SARS-CoV-2 M^pro (Severe acute respiratory syndrome coronavirus 2, UniProt P0DTD1); conditions: cited from earlier work
SARS-CoV-2 M^pro [2] = target: T1, SARS-CoV-2 M^pro; experiment: biochemical; format: biochemical; design: The main protease (M^pro) of SARS-CoV-2; made in house
SARS-CoV M^pro = conditions: cited from earlier work
SARS-CoV-2 M^pro [3] = target: T1, SARS-CoV-2 M^pro
M^pro dimer = format: binding, SARS-CoV-2; conditions: pH 6.9
SARS-CoV-2 M^pro [4] = target: T1, SARS-CoV-2 M^pro; conditions: pH 7.5
SARS-CoV-2 M^pro [5] = target: T1, SARS-CoV-2 M^pro; format: biochemical; design: The main protease (M^pro) of SARS-CoV-2; made in house
SARS-CoV-2 M^pro [6] = target: T1, SARS-CoV-2 M^pro; format: biochemical; design: The main protease (M^pro) of SARS-CoV-2; made in house; conditions: for depletion of s01 in presence of inhibitor: pH 6.9
SARS-CoV-2 M^pro [7] = target: T1, SARS-CoV-2 M^pro; experiment: biochemical; design: The main protease (M^pro) of SARS-CoV-2; made in house; conditions: for Hill slope: pH 7.5

For `O=c1c2ccccc2[se]n1-c1ccccc1` [Ebselen], the “mode of inhibition (in words)” value (SARS-CoV-2 M^pro [1]) is listed as “reacts multiple times with M^pro; also recorded: complex mode of inhibition” and the mode of inhibition (SARS-CoV-2 M^pro [2]) is listed as “did not support competitive inhibition”.

In the case of FYPKLQ↓SSQAW [s11], the “turnover by SARS-CoV M^pro (in words)” value (SARS-CoV M^pro) is given as “medium turnover”, the “turnover (fast/medium/slow)” value (SARS-CoV-2 M^pro [3]) is given as “fast” and the “substrate ion depletion after 1 min” value (SARS-CoV-2 M^pro [3]; pH 6.9) is given as greater than 70%. The “substrate ion depletion after 6 min” value (SARS-CoV-2 M^pro [3]; pH 6.9) was greater than 90%, the “complexes with M^pro dimer after 1 min” value (M^pro dimer) was “complexes of the M^pro dimer and the cleavage products were observed” and the “turnover / cleavage (in words)” value (SARS-CoV-2 M^pro [4]) was “next preferred substrate for catalysis”.

In the case of KYLTWQNSQIN-NH2 [p13], the “cleavage products by LCMS” value (SARS-CoV-2 M^pro [5]) is reported as “not observed”, the “M^pro dimer/s01-cleavage product complexes in presence of inhibitor” value (SARS-CoV-2 M^pro [6]) is reported as “the abundance of these complexes was lower than the abundance of M^pro/p13 complexes” and the “depletion of s01 in presence of inhibitor” value (shortened to “depletion … of inhibitor”) (SARS-CoV-2 M^pro [6]) is reported as 91%. For the same molecule, the mode of inhibition (SARS-CoV-2 M^pro [2]) was “competitive inhibition”, the IC50 (SARS-CoV-2 M^pro [2]; IC50 at [S] = 2 µM) was 2.97 ± 0.21 µM and the IC50 (SARS-CoV-2 M^pro [2]; IC50 at [S] = 10 µM) was 4.28 ± 0.8 µM. It also gave an IC50 (SARS-CoV-2 M^pro [2]; IC50 at [S] = 20 µM) of 6.77 ± 0.46 µM and an IC50 (SARS-CoV-2 M^pro [2]; IC50 at [S] = 40 µM) of 18.1 ± 0.96 µM.

In the case of KYTFWQYSQFY-NH2 [p12], the IC50 (SARS-CoV-2 M^pro [7]) is reported as 5.36 ± 2.17 µM, the Hill slope (SARS-CoV-2 M^pro [7]) is reported as 1.25 ± 0.06 and the “cleavage products by LCMS” value (SARS-CoV-2 M^pro [5]) is reported as “not observed”. For the same molecule, the “depletion … of inhibitor” value (SARS-CoV-2 M^pro [6]) was 95%, the “IC50 ratio R” value (SARS-CoV-2 M^pro [2]) was 3.61 and the mode of inhibition (SARS-CoV-2 M^pro [2]) was “competitive inhibition”. The IC50 (SARS-CoV-2 M^pro [2]; IC50 at [S] = 2 µM) was 4.53 ± 0.9 µM, the IC50 (SARS-CoV-2 M^pro [2]; IC50 at [S] = 10 µM) was 4.99 ± 0.22 µM and the IC50 (SARS-CoV-2 M^pro [2]; IC50 at [S] = 20 µM) was 7.49 ± 0.04 µM. The IC50 (SARS-CoV-2 M^pro [2]; IC50 at [S] = 40 µM) was 16.3 ± 0.52 µM.

In the case of LTINWQKYFNT-NH2 [p15], the IC50 (SARS-CoV-2 M^pro [7]) is reported as 5.31 ± 1.08 µM, the Hill slope (SARS-CoV-2 M^pro [7]) is reported as 1.17 ± 0.16 and the “cleavage products by LCMS” value (SARS-CoV-2 M^pro [5]) is reported as “not observed”. The “depletion … of inhibitor” value (SARS-CoV-2 M^pro [6]) was 70%, the “IC50 ratio R” value (SARS-CoV-2 M^pro [2]) was 4.56 and the mode of inhibition (SARS-CoV-2 M^pro [2]) was “competitive inhibition”. It also gave an IC50 (SARS-CoV-2 M^pro [2]; IC50 at [S] = 2 µM) of 8.26 ± 0.06 µM, an IC50 (SARS-CoV-2 M^pro [2]; IC50 at [S] = 10 µM) of 12 ± 0.34 µM and an IC50 (SARS-CoV-2 M^pro [2]; IC50 at [S] = 20 µM) of 18.83 ± 0.18 µM. For the same molecule, the IC50 (SARS-CoV-2 M^pro [2]; IC50 at [S] = 40 µM) was 37.7 ± 2.02 µM.

For REPMLQ↓SADAQ [s07], the “turnover by SARS-CoV M^pro (in words)” value (SARS-CoV M^pro) is listed as “slow turnover”, the “turnover (fast/medium/slow)” value (SARS-CoV-2 M^pro [3]) is listed as “slow” and the “substrate ion depletion after 12 min” value (SARS-CoV-2 M^pro [3]; pH 6.9) is listed as “below 50%”. For the same molecule, the “complexes with M^pro dimer after 1 min” value (M^pro dimer) was “only M^pro complexes with intact substrates were observed” and the “turnover / cleavage (in words)” value (SARS-CoV-2 M^pro [4]) was “Slow turnover”.

In the case of SGVTFQ↓SAVKR [s02], the “relative catalytic efficiency with SARS-CoV M^pro (in words)” value (SARS-CoV M^pro) is given as “highest relative efficiencies”, the “turnover by SARS-CoV M^pro (in words)” value (SARS-CoV M^pro) is given as “fast turnover” and the “turnover (fast/medium/slow)” value (SARS-CoV-2 M^pro [3]) is given as “medium”. The “substrate ion depletion after 6 min” value (SARS-CoV-2 M^pro [3]; pH 6.9) was greater than 70%, the “substrate ion depletion after 12 min” value (SARS-CoV-2 M^pro [3]; pH 6.9) was greater than 90% and the “complexes with M^pro dimer after 1 min” value (M^pro dimer) was “complexes of the M^pro dimer and the cleavage products were observed”. The “turnover / cleavage (in words)” value (SARS-CoV-2 M^pro [4]) was “hydrolysed less efficiently than s11”.

In the case of WFTLKQYWQTN-NH2 [p16], the IC50 (SARS-CoV-2 M^pro [7]) is reported as 3.76 ± 0.51 µM, the Hill slope (SARS-CoV-2 M^pro [7]) is reported as 1.19 ± 0.16 and the “cleavage products by LCMS” value (SARS-CoV-2 M^pro [5]) is reported as “not observed”. For the same molecule, the “depletion … of inhibitor” value (SARS-CoV-2 M^pro [6]) was 78%, the “IC50 ratio R” value (SARS-CoV-2 M^pro [2]) was 4.85 and the mode of inhibition (SARS-CoV-2 M^pro [2]) was “competitive inhibition”. The IC50 (SARS-CoV-2 M^pro [2]; IC50 at [S] = 2 µM) was 4.79 ± 0.08 µM, the IC50 (SARS-CoV-2 M^pro [2]; IC50 at [S] = 10 µM) was 6.66 ± 0.41 µM and the IC50 (SARS-CoV-2 M^pro [2]; IC50 at [S] = 20 µM) was 10.4 ± 0.53 µM. For the same molecule, the IC50 (SARS-CoV-2 M^pro [2]; IC50 at [S] = 40 µM) was 23.2 ± 0.42 µM.
